Results: patent US8999937B2, “Glucocorticoid induced leucine zipper mimetics as therapeutic agents in multiple sclerosis” (Indiana University Research and Technology Corporation, priority 2011, dated 2015)

Test system: CD4+ LNC from PLP primed SJL/J mice
Assay: In vitro proliferation ([3H]-thymidine) of PLP139-151 restimulated CD4+ LNC from primed SJL/J mice
Type: cell-based, mouse
Details: with Pep-1, PLP 40 μg/ml, 72 h
Description: CD4+ lymph node cells (LNC) isolated from the draining lymph nodes harvested from SJL/J mice 10 days after immunization with PLP139-151 were cultured in 96-well plates at […] in complete RPMI and restimulated with the PLP peptide (40 μg/ml) for 72 h, including a final 16-h pulse with [^3H]-thymidine. […] Separate cultures stimulated with ova (40 μg/ml) served as control for antigen specificity. Irradiated splenocytes from syngenic mice were used as antigen presenting cells (APC). Cultures were harvested onto glass fiber mats using a Skatron harvester (Skatron, Sterling, Va.), and the levels of [^3H]-thymidine incorporation were determined by liquid scintillation counting (Microbeta; Wallac, Turku, Finland). Results were confirmed by replicate experiments. Data are expressed as Δcpm (counts/min incorporated in antigen-stimulated culture-counts/min incorporated by control unstimulated culture).
Supernatants collected at 24 and 48 h were assessed for specific cytokines using the OptEIA kits (BD Biosciences). Proliferation assays included parallel cultures for 72 h with a final 18-h pulse with [^3H]thymidine measured by liquid scintillation counting (Microbeta, Turku, Finland).

C[C@@H]1C[C@H]2[C@@H]3CCC4=CC(=O)C=C[C@]4(C)[C@@]3(F)[C@@H](O)C[C@]2(C)[C@@]1(O)C(=O)CO [dexamethasone, reference compound]
proliferative response (Δcpm): 2226+/−327 cpm
